According to paper doi:10.1101/2024.01.31.578122v1 (biorxiv, 2024):

Key:
[1] = molecular target: TRIM21 PRYSPRY (PRYSPRY domain of TRIM21) (Homo sapiens, UniProt P19474, D355A); assay: isothermal titration calorimetry; format: binding
[2] = molecular target: TRIM21 PRYSPRY (PRYSPRY domain of TRIM21) (Homo sapiens, UniProt P19474); assay: microscale thermophoresis, RED-NHS labelled protein; format: binding
Chain of TRIM21 PRYSPRY (PRYSPRY domain of TRIM21) (Homo sapiens, UniProt P19474) (P19474 287-465): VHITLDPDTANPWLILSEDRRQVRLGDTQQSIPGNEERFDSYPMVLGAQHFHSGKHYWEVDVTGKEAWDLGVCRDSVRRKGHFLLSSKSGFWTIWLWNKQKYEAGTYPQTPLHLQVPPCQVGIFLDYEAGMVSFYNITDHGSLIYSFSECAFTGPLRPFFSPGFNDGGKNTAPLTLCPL

Chain of TRIM21 PRYSPRY (PRYSPRY domain of TRIM21) (Homo sapiens, UniProt P19474, D355A) (P19474 287-465 D355A): as the sequence (P19474 287-465) above, with D69A counted along it

| SMILES | Kd [1] | Kd [2] |
| --- | --- | --- |
| C[C@@H](O)c1ccc2c(c1)N(CCCN(C)C)c1ccccc1S2 [(R)-ACE-OH] | 9.11 µM | – |
| C[C@H](O)c1ccc2c(c1)N(CCCN(C)C)c1ccccc1S2 [(S)-hydroxyl-acepromazine] | 17.9 µM | 237 µM |
| CC(=O)c1ccc2c(c1)N(CCCN(C)C)c1ccccc1S2 [acepromazine] | 5.66 µM | 44.6 µM |
